Results taken from ChEMBL document CHEMBL5316338, “Discovery of Novel PTP1B Inhibitors with Once-Weekly Therapeutic Potential for Type 2 Diabetes: Design, Synthesis, and In Vitro and In Vivo Investigations of BimBH3 Peptide Analogues” (J Med Chem, 2023).
Numbered stars: 1 amine (or outer) side, 2 acyl side, 3 side chain; on linkers, the order of the positions; unused ones are H or OH. Square brackets hold non-standard residues; d marks the D form. Peptide text beside a SMILES is read from it. * marks the point of attachment. ξ: configuration not given here. C18 diacid = O=C(O)CCCCCCCCCCCCCCCCC(=O)*; γGlu = O=C(O)[C@H](CCC(=O)[*:2])N[*:1]; C14 diacid = O=C(O)CCCCCCCCCCCCC(=O)*; Pentanoyl(5-Ph) = O=C(CCCCc1ccccc1)*; C12 diacid = O=C(O)CCCCCCCCCCC(=O)*; HOOC(CH2)6CO = O=C(O)CCCCCCC(=O)*; Malonyl = O=C(CC(=O)[*:2])[*:1]; ξR = N=C(N)NCCCC(N)C(=O)O; Octanoyl = CCCCCCCC(=O)*; Pentanoyl = CCCCC(=O)*; AEEA = NCCOCCOCC(=O)O; Propionyl = CCC(=O)*

target: T1, Tyrosine-protein phosphatase non-receptor type 1 (Homo sapiens) (UniProt P18031); assay: Inhibition of N-terminal His tagged recombinant human PTP1B expressed in Escherichia coli using pNPP as substrate assessed as substrate hydrolysis at 40 umol/L relative to control; conditions: dose 40.0 µmol/L
T1 sequence (whole entry): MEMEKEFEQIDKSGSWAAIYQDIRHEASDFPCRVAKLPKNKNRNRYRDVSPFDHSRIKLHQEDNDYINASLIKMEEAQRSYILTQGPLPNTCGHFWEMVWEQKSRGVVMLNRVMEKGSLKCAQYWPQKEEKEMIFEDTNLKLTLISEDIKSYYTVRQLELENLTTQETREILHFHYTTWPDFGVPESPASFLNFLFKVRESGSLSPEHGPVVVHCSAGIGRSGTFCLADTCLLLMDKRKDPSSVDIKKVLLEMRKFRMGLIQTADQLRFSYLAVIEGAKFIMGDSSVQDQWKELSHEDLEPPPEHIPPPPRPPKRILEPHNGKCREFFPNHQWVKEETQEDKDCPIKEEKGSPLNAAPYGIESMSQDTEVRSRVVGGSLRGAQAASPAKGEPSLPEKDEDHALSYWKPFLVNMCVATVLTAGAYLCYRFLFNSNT

inhibition, < 50%:
CC[C@H](C)[C@H](NC(=O)CC(=O)O)C(=O)N[C@@H](C)C(=O)N[C@@H](CCC(N)=O)C(=O)N[C@@H](CCC(=O)O)C(=O)N[C@@H](CC(C)C)C(=O)N[C@@H](CCCNC(=N)N)C(=O)N[C@@H](CCCNC(=N)N)C(=O)N[C@H](C(=O)NCC(=O)N[C@@H](CC(=O)O)C(=O)N[C@@H](CCC(=O)O)C(=O)N[C@@H](Cc1ccccc1)C(=O)O)[C@@H](C)CC (Malonyl-IAQELRRIGDEF-OH), CCCCCCCC(=O)N[C@H](C(=O)N[C@@H](C)C(=O)N[C@@H](CCC(N)=O)C(=O)N[C@@H](CCC(=O)O)C(=O)N[C@@H](CC(C)C)C(=O)N[C@@H](CCCNC(=N)N)C(=O)N[C@@H](CCCNC(=N)N)C(=O)N[C@H](C(=O)NCC(=O)N[C@@H](CC(=O)O)C(=O)N[C@@H](CCC(=O)O)C(=O)N[C@@H](Cc1ccccc1)C(=O)O)[C@@H](C)CC)[C@@H](C)CC (Octanoyl-IAQELRRIGDEF-OH), CCCCC(=O)N[C@H](C(=O)N[C@@H](C)C(=O)N[C@@H](CCC(N)=O)C(=O)N[C@@H](CCC(=O)O)C(=O)N[C@@H](CC(C)C)C(=O)N[C@@H](CCCNC(=N)N)C(=O)N[C@@H](CCCNC(=N)N)C(=O)N[C@H](C(=O)NCC(=O)N[C@@H](CC(=O)O)C(=O)N[C@@H](CCC(=O)O)C(=O)N[C@@H](Cc1ccccc1)C(=O)O)[C@@H](C)CC)[C@@H](C)CC (Pentanoyl-IAQELRRIGDEF-OH), CCC(=O)N[C@H](C(=O)N[C@@H](C)C(=O)N[C@@H](CCC(N)=O)C(=O)N[C@@H](CCC(=O)O)C(=O)N[C@@H](CC(C)C)C(=O)N[C@@H](CCCNC(=N)N)C(=O)N[C@@H](CCCNC(=N)N)C(=O)N[C@H](C(=O)NCC(=O)N[C@@H](CC(=O)O)C(=O)N[C@@H](CCC(=O)O)C(=O)N[C@@H](Cc1ccccc1)C(=O)O)[C@@H](C)CC)[C@@H](C)CC (Propionyl-IAQELRRIGDEF-OH), CC[C@H](C)[C@H](NC(=O)CCCCCCCCCCC(=O)O)C(=O)N[C@@H](C)C(=O)N[C@@H](CCC(N)=O)C(=O)N[C@@H](CCC(=O)O)C(=O)N[C@@H](CC(C)C)C(=O)N[C@@H](CCCNC(=N)N)C(=O)N[C@@H](CCCNC(=N)N)C(=O)N[C@H](C(=O)NCC(=O)N[C@@H](CC(=O)O)C(=O)N[C@@H](CCC(=O)O)C(=O)N[C@@H](Cc1ccccc1)C(=O)O)[C@@H](C)CC ({C12 diacid}-IAQELRRIGDEF-OH), CC[C@H](C)[C@H](NC(=O)CCCCCCCCCCCCC(=O)O)C(=O)N[C@@H](C)C(=O)N[C@@H](CCC(N)=O)C(=O)N[C@@H](CCC(=O)O)C(=O)N[C@@H](CC(C)C)C(=O)N[C@@H](CCCNC(=N)N)C(=O)NC(CCCNC(=N)N)C(=O)N[C@H](C(=O)NCC(=O)N[C@@H](CC(=O)O)C(=O)N[C@@H](CCC(=O)O)C(=O)N[C@@H](Cc1ccccc1)C(=O)O)[C@@H](C)CC (stereo not given in full) ({C14 diacid}-IAQELR[ξR]IGDEF-OH), CC[C@H](C)[C@H](NC(=O)COCCOCCNC(=O)COCCOCCNC(=O)CC[C@H](NC(=O)CCCCCCCCCCCCCCCCC(=O)O)C(=O)O)C(=O)N[C@@H](C)C(=O)N[C@@H](CCC(N)=O)C(=O)N[C@@H](CCC(=O)O)C(=O)N[C@@H](CC(C)C)C(=O)N[C@@H](CCCNC(=N)N)C(=O)N[C@@H](CCCNC(=N)N)C(=O)N[C@H](C(=O)NCC(=O)N[C@@H](CC(=O)O)C(=O)N[C@@H](CCC(=O)O)C(=O)N[C@@H](Cc1ccccc1)C(=O)O)[C@@H](C)CC ({C18 diacid-γGlu-AEEA-AEEA}-IAQELRRIGDEF-OH), CC[C@H](C)[C@H](NC(=O)CCCCCCC(=O)O)C(=O)N[C@@H](C)C(=O)N[C@@H](CCC(N)=O)C(=O)N[C@@H](CCC(=O)O)C(=O)N[C@@H](CC(C)C)C(=O)N[C@@H](CCCNC(=N)N)C(=O)N[C@@H](CCCNC(=N)N)C(=O)N[C@H](C(=O)NCC(=O)N[C@@H](CC(=O)O)C(=O)N[C@@H](CCC(=O)O)C(=O)N[C@@H](Cc1ccccc1)C(=O)O)[C@@H](C)CC ({HOOC(CH2)6CO}-IAQELRRIGDEF-OH), CC[C@H](C)[C@H](NC(=O)CCCCc1ccccc1)C(=O)N[C@@H](C)C(=O)N[C@@H](CCC(N)=O)C(=O)N[C@@H](CCC(=O)O)C(=O)N[C@@H](CC(C)C)C(=O)N[C@@H](CCCNC(=N)N)C(=O)N[C@@H](CCCNC(=N)N)C(=O)N[C@H](C(=O)NCC(=O)N[C@@H](CC(=O)O)C(=O)N[C@@H](CCC(=O)O)C(=O)N[C@@H](Cc1ccccc1)C(=O)O)[C@@H](C)CC ({Pentanoyl(5-Ph)}-IAQELRRIGDEF-OH), Ac-IAQELRRIGDEF-OH
